Converted amounts (≈) assume the structure as drawn. Positions of bridges follow the written chain, without caps; N, C: chain ends. Residues, ends and D or L forms follow the SMILES beside them.
Key:
E. coli ML-35p = conditions: MHB + 0.9% NaCl with 25% FBS versus without
Experimental: Initially, antimicrobial activity of abarenicin and UuBRI-21 was evaluated against the reference strain of E. coli (ML-35p) under various conditions (Table 1). Minimal inhibitory concentrations (MICs) were determined via two-fold serial dilutions in 96-well polystyrene plates. Serial dilutions were made in 0.1% bovine serum albumin (BSA) to minimize the absorption of peptides on the surface of plate wells. Mueller–Hinton broth (MHB) supplemented with 0.9% NaCl was used as the standardized medium.
(§1) Bacterial cultures were grown in MHB at 37 °C until the culture reached an optical density OD600 of 1.0 and diluted with the broth so that to reach a final cell concentration of 10^6 CFU/mL. Then 50 μL of the test culture were added to 50 μL of aqueous solutions of the peptides, previously diluted in 0.1% sterilized bovine serum albumin (BSA) to reduce non-specific binding of the peptides to the surface of the plates. Next, the plate was incubated for 24 h at 37 °C and 950 rpm on the plate thermoshaker (Biosan). The values of the minimum inhibitory concentrations (MIC) were determined as the minimum concentration of the peptide, at which there is no culture growth. The results were expressed as the median values of three independent experiments performed in triplicate.

Gram-negative bacteria = assay: Geometric mean of MICs, Gram-negative panel; format: cell-based
Experimental: as §1, with “The antimicrobial activity of the peptides was determined via the method of two-fold serial dilutions in sterile 96-well flat-bottom polystyrene microplates (Eppendorf #0030730011) in Mueller–Hinton broth (MHB, Sigma, Kawasaki, Kanagawa, Japan) supplemented with 0.9% NaCl. Bacterial” for “Bacterial”

Gram-positive bacteria = format: cell-based; conditions: 24 h
Experimental: as §1, with “The antimicrobial activity of the peptides was determined via the method of two-fold serial dilutions in sterile 96-well flat-bottom polystyrene microplates (Eppendorf #0030730011) in Mueller–Hinton broth (MHB, Sigma, Kawasaki, Kanagawa, Japan) supplemented with 0.9% NaCl. Bacterial” for “Bacterial”

E. coli 3421/E19 = assay: Neutropenic mice peritonitis model; format: in vivo, BALB/c mice; conditions: single i.v. dose of 10 mg/kg, E. coli 3421/E19
Experimental: Immune-deficient mice were inoculated intraperitoneally (i.p.) with bacterial suspension. Antimicrobial agent was administered 1 h post-infection, and colony counts in blood and peritoneal fluid (PF) were determined 5 h later.
(A) The mice peritonitis model. […] Horizontal bars indicate means ± SD.
Food and water were provided ad libitum.
CFU counts were determined from blood and peritoneal fluid (PF) 5 h after treatment. The mice were euthanized by CO2 asphyxiation and blood was collected by axillary cut down. A total of 2 mL sterile saline was injected i.p. and the abdomen gently massaged before it was opened, fluid sampled with a pipette, serially diluted and placed on Endo agar supplemented with 20 µg/mL of tetracycline for CFU identification.

[1] = RP-HPLC retention time as measure of hydrophobicity; format: physicochemical; conditions: chromatographic, semipreparative RP-HPLC, C18 column, linear gradient 5 to 80% (v/v) acetonitrile in water with 0.1% TFA within 50 minutes; used as measure of hydrophobicity
Experimental: Table S1. Characteristics of the recombinant AMPs.
1 Mean Kyte–Doolittle hydrophobicity index (GRAVY) was calculated using the Expasy ProtParam tool. The maximum and minimum values of this index are +4.5 and -4.5 for poly-Ile and poly-Arg sequences, respectively. 2 Retention times were measured using semipreparative reversed-phase high-performance liquid chromatography (RP - HPLC) on a C18 column with a linear gradient from 5 to 80% ( v/v) acetonitrile in water containing 0.1% trifluoroacetic […]
acid (TFA) within 50 minutes. […]

[2] = system: P. aeruginosa PAO1 mature biofilms; assay: Effect on mature biofilms, viability by MTT; conditions: P. aeruginosa PAO1 pre-formed biofilm, 16 µM, 2-h exposure
Experimental: Biofilm viability was measured by tetrazolium salt reduction (right panel). Values are presented as means ± the standard deviation (SD) of three independent experiments.
The effect of peptides on pre-formed biofilms was evaluated as follows. Biofilms were grown on a 96-well plate at 32 °C for 24 h and stirred at 120 rpm to ensure biofilm formation primarily on the wall of the wells. […] Bacterial survival in the biofilms after 2-h exposure was evaluated via a MTT assay after incubation with a tested peptide. Then, wells were rinsed with sterile water, treated with an MTT solution (Sigma, Kawasaki, Kanagawa, Japan) in PBS, and incubated for 4 h at 37 °C. Next, the medium was removed. The resulting formazan crystals were dissolved in a mixture of EtOH and DMSO (1:1) for 10 min. The optical density of the solution was measured at 570 nm. Bacterial survival was calculated as percent relative to samples without antimicrobial agent. All data were obtained from at least three independent experiments in 3 repetitions.

human red blood cells = format: cell-based
Experimental: Figure 4 (A) Hemolytic effect on human red blood cells after 2 h incubation (hemoglobin release assay). (B) Cytotoxicity toward transformed human embryonic kidney cells after 20 h incubation (MTT-assay). The positive control used was 0.1% Triton X-100 and sterile PBS as a negative control. Melittin was used as an additional positive control. The data are presented as the mean ± SD of three independent experiments.
The hemolytic activity of compounds was performed using human red blood cells (hRBS) of healthy donor. Fresh blood was centrifuged to separate the erythrocyte fraction for 15 min at 500 g and washed three times with cold phosphate-buffered saline (PBS) (pH 7.4), after which an 8% (v/v) suspension of erythrocytes in PBS was prepared. Then, 50 µL of erythrocyte suspension was added to the test peptides, previously were dissolved in 50 µL of 0.1% BSA. The plate was incubated for 1.5 h at 37 °C and 950 rpm on the plate thermoshaker. After incubation, the plates were centrifuged for 15 min at 1000 g to settle intact erythrocytes. Next, aliquots of the supernatant were transferred to another plate to measure the amount of hemoglobin release by the absorbance of the solution at 405 nm. As “zero lysis” we used the supernatant obtained after centrifugation of erythrocytes incubated in a PBS solution without the addition of a peptide. As “100% lysis”, we used the supernatant obtained after centrifugation of erythrocytes incubated in a 0.1% Triton X-100, causing their complete lysis. The assays were conducted three times. The quantitative data were presented as an average means with standard deviations. Hemolysis(%)=OD405(compound)−OD405(zerolysis)/OD405(100%lysis)−OD405(zerolysis)×100%

| SMILES | Fold reduction of antibacterial activity in the presence of serum (E. coli ML-35p) | Fold reduction in the antimicrobial activity compared to Ap4 (Gram-negative bacteria; Gram-negative GM values) | Minimum inhibitory concentration (MIC): Gram-positive Geometric mean (Gram-positive bacteria) | Efficacy in the neutropenic peritonitis model (in words) (E. coli 3421/E19) | RP-HPLC Retention Time [1] | Residual viability of bacteria in mature biofilm [2] | Hemolytic activity (in words) (human red blood cells) | Minimum inhibitory concentration (MIC): Gram-negative Geometric mean (Gram-negative bacteria; geometric mean (GM) of MICs against the 14 Gram-negative strains of Figure 2) |
| --- | --- | --- | --- | --- | --- | --- | --- | --- |
| CC[C@H](C)[C@@H]1NC(=O)[C@H](CCCNC(=N)N)NC(=O)[C@H](C)NC(=O)CNC(=O)[C@H](CC(N)=O)NC(=O)[C@H](CCCNC(=N)N)NC(=O)[C@H](CCCNC(=N)N)NC(=O)[C@H](C)NC(=O)[C@@H]2CSSC[C@H](NC1=O)C(=O)N[C@@H](Cc1ccc(O)cc1)C(=O)N[C@@H](CCCNC(=N)N)C(=O)N[C@@H](CCCNC(=N)N)C(=O)N[C@H](C(=O)N[C@@H](CC(N)=O)C(=O)O)CSSC[C@H](NC(=O)[C@H](Cc1ccc(O)cc1)NC(=O)CN)C(=O)N[C@@H](Cc1ccccc1)C(=O)N[C@@H]([C@@H](C)O)C(=O)N[C@@H](C)C(=O)N2 [Ap11] (H-GYCFTACARRNGARICYRRCN-OH; disulfide 3-20, 7-16) | 4 fold | at least 5 fold | 4 µM (≈ 9.8 µg/mL) | ineffective | 25.17 min | about 20% | – | – |
| CC[C@H](C)[C@@H]1NC(=O)[C@H](CCCNC(=N)N)NC(=O)[C@H](C(C)C)NC(=O)CNC(=O)[C@H](CC(N)=O)NC(=O)[C@H](CCCNC(=N)N)NC(=O)[C@H](Cc2ccc(O)cc2)NC(=O)[C@H](Cc2ccc(O)cc2)NC(=O)[C@@H]2CSSC[C@H](NC1=O)C(=O)N[C@@H](C(C)C)C(=O)N[C@@H](CCCNC(=N)N)C(=O)N[C@@H](Cc1ccc(O)cc1)C(=O)N[C@H](C(=O)N[C@@H](CC(N)=O)C(=O)O)CSSC[C@H](NC(=O)[C@H](Cc1ccccc1)NC(=O)CN)C(=O)NCC(=O)N[C@@H](Cc1ccc(O)cc1)C(=O)N[C@@H](C)C(=O)N2 [UuBRI-21] (H-GFCGYACYYRNGVRICVRYCN-OH; disulfide 3-20, 7-16) | 16 fold | – | 2 µM (≈ 4.95 µg/mL) | lack of effectivity | 28.48 min | – | moderate hemolytic activity | – |
| CC[C@H](C)[C@@H]1NC(=O)[C@H](CCCNC(=N)N)NC(=O)[C@H](C(C)C)NC(=O)CNC(=O)[C@H](CC(N)=O)NC(=O)[C@H](CCCNC(=N)N)NC(=O)[C@H](CCCNC(=N)N)NC(=O)[C@H](Cc2ccc(O)cc2)NC(=O)[C@@H]2CSSC[C@H](NC1=O)C(=O)N[C@@H](Cc1ccc(O)cc1)C(=O)N[C@@H](CCCNC(=N)N)C(=O)N[C@@H](CCCNC(=N)N)C(=O)N[C@H](C(=O)N[C@@H](CC(N)=O)C(=O)O)CSSC[C@H](NC(=O)[C@H](Cc1ccc(O)cc1)NC(=O)CN)C(=O)N[C@@H](Cc1ccccc1)C(=O)N[C@@H]([C@@H](C)O)C(=O)N[C@@H](C)C(=O)N2 [Ap4] (H-GYCFTACYRRNGVRICYRRCN-OH; disulfide 3-20, 7-16) | – | – | 0.63 µM (≈ 1.62 µg/mL) | – | 24.79 min | – | ability to lyse hRBCs is stronger | 0.13 µM (≈ 0.334 µg/mL) |

— article PMC9410094 (Marine Drugs, 2022)
